test system: apyrase; assay: Apyrase inhibition assay (Method 1); format: biochemical; conditions: inhibitor conc at 1 mM stock, 10 μl per well; 1 hr room temperature; rounded average of at least two assay results
Description: Apyrase inhibitors useful as enhancers of pesticidal activity are assessed using an in vitro assay. The method of Windsor, Bio Techniques 33:1024-1030 (November 2002) was used as follows
96 well plates were used for the assay: (Greiner bio-one: REF-655901-96 well, PS, F-bottom, Clear, Non-binding)
• Reaction Buffer: 60 mM Hepes, 3 mM MgCl2, 3 mM CaCl2 and 3 mM ATP (pH 6.5) • Development Buffer A: 2% aqueous ammonium molybdate • Development Buffer B: 11% ascorbic acid in 37.5% TCA in water • Stop buffer C: 2% trisodium citrate in 2% acetic acid solution in water • Add 100 μl of reaction buffer to each well. • Add 10 μl of DMSO (control) or inhibitor/compound or compounds such as N1915 or orthovanadate to each well. (use inhibitor conc at 1 mM; orthovanadate at 2 mM and N1915 at 1 mM) • Add 10 μl of apyrase (concentration based on optimization —Dilute 1 U/μl enzyme to different concentrations such as 0.1U, 0.05U, 0.0025, 0.001U, 0.0005U—to find a good range) • Incubate plate at room temperature for 1 hr • Mix development buffer A and B in the ratio of 1:1.5 (just before use). • Add 50 ul of A:B mix in each well (incubate for 2 mins) • Add 50 ul of C in each well • Measure/Read Absorbance of plate @630 nm
Inhibitory data for the apyrase assay described above are provided for selected compounds in Table 3. In Table 3, D indicates inhibition of <10%.
With reference to Table 3, percent inhibition of apyrase is reported as the rounded average of at least two assay results.

Row | Compound | % Inhibition of Apyrase
1 | CN(C(=O)c1ccccc1C(=O)Nc1ccc2c(c1)OCO2)C1CCCCC1 [Compound I-18, N^1-(benzo[d][1,3]dioxol-5-yl)-N^2-cyclohexyl-N^2-methylphthalamide] | B (B indicates inhibition of from 20% to 30%)
2 | Cc1n[nH]c2cc(NC(=O)c3cccc(C(=O)Nc4ccc5c(C)n[nH]c5c4)c3)ccc12 [Compound I-19, N^1,N^3-bis(3-methyl-1H-indazol-6-yl)isophthalamide] | B (B indicates inhibition of from 20% to 30%)
3 | COc1cc(NC(=O)c2ccc(C(=O)Nc3cc(OC)cc(OC)c3)cc2)cc(OC)c1 [Compound I-20, N1,N4-bis(3,5-dimethoxyphenyl)terephthalamide] | C (C indicates inhibition of from 10% to 20%)
4 | CCc1noc(C)c1Cn1c(=O)c2ccccc2c(=O)n1C [Compound I-21, 2-((3-ethyl-5-methylisoxazol-4-yl)methyl)-3-methyl-2,3-dihydrophthalazine-1,4-dione] | C (C indicates inhibition of from 10% to 20%)
5 | CCn1cc2ccc(NC(=O)c3cccc(C(=O)NC)c3)cc2n1 [Compound I-22, N^1-(2-ethy1-2H-indazol-6-yl)-N^3-methylisophthalamide] | C (C indicates inhibition of from 10% to 20%)
6 | O=C(NCC#Cc1ccccc1)c1ccc(C(=O)Nc2ccccc2)cc1 [Compound I-23, N1-phenyl-N4-(3-phenylprop-2-yn-1-yl)terephthalamide] | C (C indicates inhibition of from 10% to 20%)
7 | CC(C)n1cc2ccc(NC(=O)c3ccc4c(c3)C(=O)NC4=O)cc2n1 [Compound I-24, N-(2-isopropyl-2H-indazol-6-yl)-1,3-dioxoisoindoline-5-carboxamide] | C (C indicates inhibition of from 10% to 20%)
8 | Nc1ccc(N2C(=O)c3ccccc3C2=O)c(Cl)c1 [Compound I-25, 2-(4-amino-2-chlorophenyl)isoindoline-1,3-dione] | C (C indicates inhibition of from 10% to 20%)
9 | Cn1nc(Cn2c(=O)c3ccccc3c(=O)n2C)cc1Cl [Compound I-26, 2-((5-chloro-1-methyl-1H-pyrazol-3-yl)methyl)-3-methyl-2,3-dihydrophthalazine-1,4-dione] | C (C indicates inhibition of from 10% to 20%)
10 | O=C(NCc1cccc(-n2ccnc2)c1)c1ccc(C(=O)Nc2ccccc2)cc1 [Compound I-27, N^1-(3-(1H-imidazol-1-yl)benzyl)-N^4-phenylterephthalamide] | C (C indicates inhibition of from 10% to 20%)
11 | COC(C)(C)CNC(=O)c1ccc(C(=O)Nc2ccccc2)cc1 [Compound I-28, N^1-(2-methoxy-2-methylpropyl)-N^4-phenylterephthalamide] | C (C indicates inhibition of from 10% to 20%)
12 | O=C(Nc1ccccc1)c1cccc(C(=O)Nc2cccc(-c3nnn[nH]3)c2)c1 [Compound I-29, N^1-(3-(1H-tetrazol-5-yl)phenyl)-N^3-phenylisophthalamide] | C (C indicates inhibition of from 10% to 20%)
13 | O=C(NCc1ccccc1)c1ccccc1C(=O)NCc1ccccc1 [Compound I-30, N^1,N^2-dibenzylphthalamide] | C (C indicates inhibition of from 10% to 20%)
14 | COCC#CCn1c(=O)c2ccccc2c(=O)n1C [Compound I-31, 2-(4-methoxybut-2-yn-1-yl)-3-methyl-2,3-dihydrophthalazine-1,4-dione] | C (C indicates inhibition of from 10% to 20%)
15 | CC(NC(=O)c1cccc(C(=O)Nc2ccccc2)c1)C(=O)N1CCS(=O)(=O)CC1 (stereo not shown) [Compound I-32, N^1-(1-(1,1-dioxidothiomorpholino)-1-oxopropan-2-yl)-N^3-phenylisophthalamide] | C (C indicates inhibition of from 10% to 20%)
16 | O=C(Nc1cccc([N+](=O)[O-])c1)c1ccccc1C(=O)N1CCCC1 [Compound I-33, N-(3-nitrophenyl)-2-(pyrrolidine-1-carbonyl)benzamide] | C (C indicates inhibition of from 10% to 20%)
17 | O=C(Nc1ccccc1)c1ccc(C(=O)Nc2cc3n(n2)CCC3)cc1 [Compound I-34, N^1-(5,6-dihydro-4H-pyrrolo[1,2-b]pyrazol-2-yl)-N^4-phenylterephthalamide] | C (C indicates inhibition of from 10% to 20%)
18 | CNC(=O)c1cccc(C(=O)Nc2ccc(C#N)c(C(F)(F)F)c2)c1 [Compound I-35, N^1-(4-cyano-3-(trifluoromethyl)phenyl)-N^3-methylisophthalamide] | C (C indicates inhibition of from 10% to 20%)
19 | O=C1CCCc2cc(NC(=O)c3cccc(C(=O)Nc4ccc5c(c4)CCCC(=O)N5)c3)ccc2N1 [Compound I-36, N^1,N^3-bis(2-oxo-2,3,4,5-tetrahydro-1H-benzo[b]azepin-7-yl)isophthalamide] | C (C indicates inhibition of from 10% to 20%)

Row | Compound | % Inhibition of Apyrase
20 | Cc1cccc(C)c1NC(=O)c1ccccc1C(=O)N(C)Cc1ccccc1 [Compound I-37, N^1-benzyl-N^2-(2,6-dimethylphenyl)-N1-methylphthalamide] | D (D indicates inhibition of <10%)
21 | Cc1cnc(NC(=O)c2ccc(C(=O)Nc3ccccc3)cc2)[nH]1 [Compound I-38, N^1-(5-methyl-1H-imidazol-2-yl)-N^4-phenylterephthalamide] | D (D indicates inhibition of <10%)
22 | Cc1nc(NC(=O)c2ccc(C(=O)Nc3ccccc3)cc2)n[nH]1 [Compound I-39, N^1-(5-methyl-1H-1,2,4-triazol-3-yl)-N^4-phenylterephthalamide] | D (D indicates inhibition of <10%)
23 | COc1ccccc1NC(=O)c1ccccc1C(=O)N(C)Cc1ccccc1 [Compound I-40, N^1-benzyl-N^2-(2-methoxyphenyl)-N1-methylphthalamide] | D (D indicates inhibition of <10%)
24 | O=C(Nc1ccc2scnc2c1)c1ccc(C(=O)NC2CC2)cc1 [Compound I-41, N^1-(benzo[d]thiazol-5-yl)-N^4-cyclopropylterephthalamide] | D (D indicates inhibition of <10%)
25 | O=C(Nc1ccccc1)c1ccc(C(=O)N[C@@H]2C[C@H]2c2ccccc2)cc1 [Compound I-42, N^1-phenyl-N^4-((1R,2S)-2-phenylcyclopropyl)terephthalamide] | D (D indicates inhibition of <10%)
26 | CN(C(=O)c1ccccc1C(=O)Nc1cccc(C(F)(F)F)c1)C1CCCCC1 [Compound I-43, N^1-cyclohexyl-N^1-methyl-N^2-(3-(trifluoromethyl)phenyl)phthalamide] | D (D indicates inhibition of <10%)
27 | CNC(=O)c1cccc(C(=O)Nc2cccc(NC3CCCC3)c2)c1 [Compound I-44, N^1-(3-(cyclopentylamino)phenyl)-N^3-methylisophthalamide] | D (D indicates inhibition of <10%)
28 | COc1ccc(NC(=O)c2ccc(C(=O)Nc3ccc(OC)cc3OC)cc2)c(OC)c1 [Compound I-45, N^1,N^4-bis(2,4-dimethoxyphenyl)terephthalamide] | D (D indicates inhibition of <10%)
29 | O=C(Nc1ccc(N2CCCC2=O)cc1)c1ccc(C(=O)Nc2ccc(N3CCCC3=O)cc2)cc1 [Compound I-46, N^1,N^4-bis(4-(2-oxopyrrolidin-1-yl)phenyl)terephthalamide] | D (D indicates inhibition of <10%)
30 | O=C(Nc1ccccc1-c1ncc[nH]1)c1ccc(C(=O)NC2CC2)cc1 [Compound I-47, N^1-(2-(1H-imidazol-2-yl)phenyl)-N^4-cyclopropylterephthalamide] | D (D indicates inhibition of <10%)
31 | O=C(NCc1ncc[nH]1)c1ccc(C(=O)Nc2ccccc2)cc1 [Compound I-48, N^1-((1H-imidazol-2-yl)methyl)-N^4-phenylterephthalamide] | D (D indicates inhibition of <10%)
32 | Cc1nncn1CCNC(=O)c1ccc(C(=O)Nc2ccccc2)cc1 [Compound I-49] | D (D indicates inhibition of <10%)
33 | CNC(=O)c1cccc(C(=O)Nc2ccc3[nH]c(=O)sc3c2)c1 [Compound I-50, N^1-methyl-N^3-(2-oxo-2,3-dihydrobenzo[d]thiazol-6-yl)isophthalamide] | D (D indicates inhibition of <10%)
34 | Cc1cc(C)c(NC(=O)c2ccc(C(=O)Nc3c(C)cc(C)cc3C)cc2)c(C)c1 [Compound I-51, N^1,N^4-dimesitylterephthalamide] | D (D indicates inhibition of <10%)
35 | CCCNC(=O)c1cccc(C(=O)Nc2ccc3c[nH]nc3c2)c1 [Compound I-52, N^1-(2H-indazol-6-yl)-N^3-propylisophthalamide] | D (D indicates inhibition of <10%)
36 | CN1CCN(C(=O)c2ccccc2C(=O)Nc2ccc(F)cc2)CC1 [Compound I-53, N-(4-fluorophenyl)-2-(4-methylpiperazine-1-carbonyl)benzamide] | D (D indicates inhibition of <10%)
37 | O=C(Nc1cccc2c1CNC2=O)c1cccc(C(=O)Nc2cccc3c2CNC3=O)c1 [Compound I-54, N^1,N^3-bis(1-oxoisoindolin-4-yl)isophthalamide] | D (D indicates inhibition of <10%)

From patent publication US20250275537A1, “CARBOXAMIDE APYRASE INHIBITORS” (Texas Crop Science, Inc., priority 2024, published 2025)
